# Results as given in publication PMC7854510 (Molecular microbiology, 2020).
# Molecular target: T1, rLacR (UA159) (Streptococcus mutans, UniProt P26422)
# T1 sequence (P26422 1-251): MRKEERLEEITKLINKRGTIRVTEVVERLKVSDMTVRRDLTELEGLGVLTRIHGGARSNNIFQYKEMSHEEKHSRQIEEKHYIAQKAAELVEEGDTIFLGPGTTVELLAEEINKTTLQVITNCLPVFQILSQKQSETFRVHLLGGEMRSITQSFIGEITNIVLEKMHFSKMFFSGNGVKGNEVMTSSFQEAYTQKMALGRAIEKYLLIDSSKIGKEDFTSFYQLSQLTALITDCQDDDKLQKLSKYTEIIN
# Assay: DNase I footprinting by capillary electrophoresis
# Type: binding
# Conditions: 5 mM; fluorescent UA159 lacA probe
smiles,measurement,value
O=P(O)(O)OC[C@H]1OC(O)[C@H](O)[C@@H](O)[C@H]1O (stereo partly shown) [Gal-6-P],DNase I footprinting by capillary electrophoresis (DFACE),addition of Gal-6-P resulted in the appearance of a DNase I hyper-sensitive site
